Measured values as given in patent US10457688B2, “Monocyclic thieno, pyrido, and pyrrolo pyrimidine compounds and methods of use and manufacture of same” (Duquesne University of the Holy Spirit, priority 2015, dated 2019).
Read-outs that look alike come from different tables or passages of the source. One block for each molecule: values may come before it.

What was measured:
[1] = test system: RT16 CHO cells expressing human FRα; conditions: cited from earlier work
[2] = test system: KB human tumor cells (RFC/FRα/PCFT); assay: growth inhibition, KB tumor cells; type: cell-based
Description: The experiments with the CHO sublines were extended to KB human nasopharengeal carcinoma cells which express highly elevated FRα, along with RFC and PCFT.

[3] = test system: RT16 CHO cells expressing human FRα; assay: growth inhibition, CHO RT16 (FRα); type: cell-based, Chinese hamster
[4] = test system: PC43-10 CHO cells expressing human RFC; assay: growth inhibition, CHO PC43-10 (human RFC); type: cell-based, Chinese hamster
[5] = test system: D4 CHO cells expressing FRβ; assay: growth inhibition, CHO D4 (FRβ); type: cell-based, Chinese hamster
[6] = test system: cellular microtubules in A-10 cells; assay: cellular microtubule depolymerization, cell-based phenotypic assay; conditions: Rattus norvegicus
MDA-MB-435 cancer cells = assay: antiproliferative sulforhodamine B assay (SRB assay), MDA-MB-435; type: cell-based; conditions: Homo sapiens
[7] = test system: R2/PCFT4 CHO cells expressing human PCFT; assay: growth inhibition, CHO R2/PCFT4 (PCFT); type: cell-based, Chinese hamster; conditions: Section III Table 1
[8] = test system: R2(VC) CHO cells (transporter-null); assay: growth inhibition, vector control R2(VC) CHO cells; type: cell-based, Chinese hamster; conditions: Cricetulus griseus, Section IV Table 1
[9] = Section IV Table 1, +FA, read-out: KB (+FA) IC50
[10] = Section IV Table 1, read-out: KB IC50 (RFC/FRα/PCFT)
[11] = Section IV Table 1, +FA, read-out: RT16 (+FA) IC50
[12] = Section IV Table 1, read-out: RT16 IC50 (FRα)
[13] = A10, read-out: EC50 for Microtubule Depolymerization in A-10 Cells
[14] = A10, read-out: EC50 in A-10 cells (Loss of cellular microtubules)
[15] = A10, read-out: EC50 in A-10 cells (Tubulin polymerization inhibitory activity)
[16] = MDA-MB-435, read-out: IC50 ± SD (MDA-MB-435) Tumor cells
[17] = read-out: IC50 ± SD in MDA-435 Cells
[18] = A10, Section VIII Table 1, read-out: EC50 in A-10 cells (Loss of cellular microtubules)
[19] = MDA-MB-435, Section VIII Table 1, read-out: IC50 + SD (MDA-MB-435) cancer cells
[20] = A10, Section VII Table 1, read-out: EC50 for Microtubule Depolymerization in A-10 Cells
[21] = A10, Section VII Table 2, read-out: EC50 in A-10 cells (Tubulin polymerization inhibitory activity)
[22] = MDA-MB-435, Section VII Table 2, read-out: IC50 ± SD (MDA-MB-435) Tumor cells
[23] = Section VII Table 1, read-out: IC50 ± SD in MDA-435 Cells
[24] = Homo sapiens, PC43-10, Section III Table 1

Compound: Nc1nc2[nH]c(CCCc3ccc(C(=O)N[C@@H](CCC(=O)O)C(=O)O)cc3)cc2c(=O)[nH]1 [AGF17]
selectivity for FR transport over RFC [1]: 25 fold

Compound: Nc1nc2[nH]c(CCOc3cccc(C(=O)N[C@@H](CCC(=O)O)C(=O)O)c3)cc2c(=O)[nH]1 [AGF220]
IC50 [2, 9]: > 1000 nM | IC50 [2, 10]: 13.1 nM | IC50 [3, 11]: > 1000 nM | IC50 [3, 12]: 30.3 nM | IC50 ([4]; Section IV Table 1): > 1000 nM

Compound: Nc1nc2[nH]c(CCNc3cccc(C(=O)N[C@@H](CCC(=O)O)C(=O)O)c3)cc2c(=O)[nH]1 [AGF256]
IC50 ([5]; Section IV Table 1, +FA, read-out: D4 (+FA) IC50): > 1000 nM | IC50 ([5]; Section IV Table 1, read-out: D4 IC50 (FRβ)): 4.19 nM | IC50 [2, 9]: > 1000 nM | IC50 [2, 10]: 14.8 nM | IC50 [3, 11]: > 1000 nM | IC50 [3, 12]: 15.9 nM | IC50 ([4]; Section IV Table 1): > 1000 nM

Compound: CSc1ccc(N(C)c2nc(C)nc3cc[nH]c23)cc1 [Compound 4]
EC50 [6, 13]: 42 nM | EC50 [6, 14]: 10 nM | EC50 [6, 15]: 42 nM | IC50 ([5]; Cricetulus griseus, CHO, read-out: D4 IC50 (FRβ)): 6.11 nM | IC50 (MDA-MB-435 cancer cells; MDA-MB-435, read-out: IC50 + SD (MDA-MB-435) cancer cells): 4 ± 0.5 nM | IC50 (MDA-MB-435 cancer cells; [16]): 4.4 ± 0.2 nM | IC50 (MDA-MB-435 cancer cells; [17]): 4.4 ± 0.2 nM | IC50 ([2]; Homo sapiens, read-out: KB IC50 (FRα/PCFT/RFC)): 6.13 nM | IC50 ([3]; Cricetulus griseus, RT16, read-out: R16 IC50 (FRα)): 1.72 nM

Compound: CSc1ccc(N(C)c2ncnc3ccsc23)cc1 [Compound 6]
EC50 [6, 20]: 707 nM | EC50 [6, 21]: 707 nM | IC50 (MDA-MB-435 cancer cells; [22]): 28.2 ± 5.5 nM | IC50 (MDA-MB-435 cancer cells; [23]): 28.2 ± 5.5 nM | IC50 [7]: 8.23 nM | IC50 [4, 24]: 207 nM

Compound: COc1ccc2c(c1)CCCN2c1nc(C)nc2ccsc12 [Compound 7]
EC50 [6, 20]: 8 nM | EC50 [6, 21]: 8 nM | IC50 (MDA-MB-435 cancer cells; [22]): 3.4 ± 0.9 nM | IC50 (MDA-MB-435 cancer cells; [23]): 3.4 ± 0.9 nM | IC50 ([2]; Homo sapiens, Section VI Table 1, read-out: KB IC50 (FRα/PCFT/RFC)): 38.9 nM

Compound: CSc1ccc2c(c1)CCCN2c1ncnc2ccsc12 [Compound 8]
EC50 [6, 20]: 22 nM | EC50 [6, 21]: 22 nM | IC50 (MDA-MB-435 cancer cells; [22]): 3.8 ± 0.3 nM | IC50 (MDA-MB-435 cancer cells; [23]): 3.8 ± 0.3 nM

Compound: COc1ccc2c(c1)OCCN2c1nc(C)nc2ccsc12 [Compound 9]
EC50 [6, 20]: 237 nM | EC50 [6, 21]: 237 nM | IC50 (MDA-MB-435 cancer cells; [23]): 109 nM

Compound: COc1cccc2cc(N(C)c3ncnc4ccsc34)ccc12 [Compound 11]
EC50 [6, 20]: 61 nM | IC50 (MDA-MB-435 cancer cells; [16]): 15.7 ± 2.2 nM | IC50 (MDA-MB-435 cancer cells; [17]): 15.7 ± 2.2 nM

Compound: CN(Cc1cnc2nc(N)nc(N)c2n1)c1ccc(C(=O)N[C@@H](CCC(=O)O)C(=O)O)cc1 [MTX, methotrexate, reference compound]
IC50 [8]: > 1000 nM

Compound: Nc1nc2[nH]cc(CCc3ccc(C(=O)N[C@@H](CCC(=O)O)C(=O)O)cc3)c2c(=O)[nH]1 [PMX, pemetrexed, reference compound]
IC50 ([2]; Homo sapiens, Section III Table 1, read-out: KB IC50 (RFC/FRα/PCFT)): 9.94 nM | IC50 [4, 24]: 30.6 nM

Compound: Cc1nc2ccc(CN(C)c3ccc(C(=O)N[C@@H](CCC(=O)O)C(=O)O)s3)cc2c(=O)[nH]1 [RTX, raltitrexed]
IC50 [8]: > 1000 nM

Compound: COc1ccc(N(C)c2nc(C)nc3ccsc23)cc1 [compound 2]
EC50 [6, 13]: 27 nM | EC50 [6, 15]: 27 nM | IC50 (MDA-MB-435 cancer cells; [16]): 7 ± 2.7 nM | IC50 (MDA-MB-435 cancer cells; [17]): 7 ± 2.7 nM

Compound: CSc1ccc(Nc2nc(C)nc3sccc23)cc1 [compound 2]
EC50 [6, 14]: > 10000 nM

Compound: CSc1ccc(Nc2nc(C)nc3cc[nH]c23)cc1 [compound 3]
EC50 [6, 20]: 25000 nM | EC50 [6, 21]: 25000 nM | IC50 (MDA-MB-435 cancer cells; [22]): 2100 ± 70 nM | IC50 (MDA-MB-435 cancer cells; [23]): 2100 ± 70 nM

Next, values leading:

EC50 [6, 18]: 2.5 nM | IC50 (MDA-MB-435 cancer cells; [19]): 3.8 nM
Compound: COc1cccc2cc(N(C)c3nc(C)nc4sccc34)ccc12 [Compound 6]

EC50 [6, 18]: > 10000 nM
Compound: COc1ccc(Nc2nc(C)nc3sc(C)c(C)c23)cc1 [Compound 7]

EC50 [6, 18]: 18 nM | IC50 (MDA-MB-435 cancer cells; [19]): 10.7 ± 1 nM
Compound: COc1ccc(N(C)c2nc(C)nc3sc(C)c(C)c23)cc1 [Compound 8]

EC50 [6, 18]: 128 nM | IC50 (MDA-MB-435 cancer cells; [19]): 34.8 ± 3.7 nM
Compound: CSc1ccc(N(C)c2nc(C)nc3sc(C)c(C)c23)cc1 [Compound 9]

EC50 [6, 18]: > 10000 nM
Compound: COc1ccc2c(c1)CCCN2c1nc(C)nc2sc(C)c(C)c12 [Compound 10]

EC50 [6, 20]: 3 nM | EC50 [6, 21]: 3 nM | IC50 (MDA-MB-435 cancer cells; [22]): 1.7 ± 0.2 nM | IC50 (MDA-MB-435 cancer cells; [23]): 1.7 ± 0.2 nM
Compound: COc1cccc2cc(N(C)c3nc(C)nc4ccsc34)ccc12 [Compound 10]

EC50 [6, 18]: 1200 nM
Compound: COc1ccc2c(c1)OCCN2c1nc(C)nc2sc(C)c(C)c12 [Compound 11]

IC50 (MDA-MB-435 cancer cells; [22]): 96.6 ± 5.3 nM | IC50 (MDA-MB-435 cancer cells; [23]): 96.6 nM
Compound: COc1ccc(N(C)c2nc(C)nc3cc[nH]c23)cc1 [compound 1]

EC50 [6, 18]: 15.4 nM | IC50 (MDA-MB-435 cancer cells; [19]): 7.6 nM
Compound: COc1ccc(N(C)c2nc(C)nc3sccc23)cc1 [compound 3]
